Test systems include EKVX; U-251; OVCAR-8; NCI-H460; SN12C; OVCAR-4; SNB-19; KM12; HOP-62; CAKI-1; HL-60; SF-268; UACC-257; Hs-578T; HCT-15; 786-0; MDA-MB-231; SF-539; NCI-H522; SR.
Holding throughout (assay): growth of human tumour cells (NCI), 48 h

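Method: 48-hour compound exposure of cells in 96-well plates, five concentrations, linear interpolation of endpoints. GI50 marks 50% less growth.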 The source made the active and inactive calls. Rule as the data show it: active = GI50 up to about 1.1 µM and inactive = higher.

For the compound `CN(C)CC(O)CNC(=O)Nc1ccccc1` (configuration not stated), the GI50 in the experiment on EKVX, in the experiment on U-251, in the experiment with OVCAR-8, in the experiment on NCI-H460, in the experiment on SN12C and in the experiment on OVCAR-4 was > 100 µM (inactive) each time. Further, the GI50 in the experiment on SNB-19, in the experiment on KM12, in the experiment on HOP-62, with CAKI-1, in the experiment with HL-60 and with SF-268 was > 100 µM (inactive) each time. The GI50 with UACC-257 is > 100 µM (inactive); in the experiment on Hs-578T, > 100 µM (inactive); in the experiment with HCT-15, over 100 µM; with 786-0, > 100 µM (inactive); in the experiment on MDA-MB-231, > 100 µM (inactive); in the experiment on SF-539, > 100 µM (inactive).
In the case of `CC12CC(c3ccccc3O1)C(C(=O)Nc1ccc(Cl)cc1Cl)C(=O)N2` (configuration not stated), the GI50 was 18.3 µM (inactive) with EKVX; 22.2 µM (inactive) in the experiment with U-251; 14.9 µM (inactive) in the experiment on OVCAR-8; 31.6 µM (inactive) in the experiment with NCI-H460; 56.8 µM (inactive) with NCI-H522; 19.6 µM (inactive) with OVCAR-4. Further, the GI50 is 36.7 µM (inactive) in the experiment with SNB-19; > 100 µM (inactive) with KM12; 20.1 µM (inactive) in the experiment with HOP-62; 45 µM (inactive) with CAKI-1; 3.34 µM (inactive) in the experiment on HL-60; 33.8 µM (inactive) in the experiment with SF-268. In addition, the GI50 in the experiment on UACC-257 is > 100 µM (inactive); in the experiment with Hs-578T, 25.2 µM (inactive); in the experiment on HCT-15, 54.2 µM; in the experiment with 786-0, 19.7 µM (inactive); in the experiment with SF-539 it was 45.4 µM (inactive).
With `COc1cc(/C=C2\N=C(c3ccccc3)N(c3nc4ccc(Sc5ccccc5)cc4[nH]3)C2=O)cc(OC)c1OC`, the GI50 with EKVX is 38.7 µM (inactive); in the experiment with U-251, 18.3 µM (inactive); in the experiment on OVCAR-8 it was 32.7 µM (inactive); with NCI-H460 it was 21.6 µM (inactive); with NCI-H522 it was 18.1 µM (inactive); in the experiment with SN12C, 27.9 µM (inactive). In addition, the GI50 in the experiment on OVCAR-4 was 41.1 µM (inactive); with SNB-19 it was 33.6 µM (inactive); in the experiment with KM12 it was 17.6 µM (inactive); with HOP-62, 31.5 µM (inactive); in the experiment with CAKI-1, 31.1 µM (inactive); in the experiment on HL-60, 14.7 µM (inactive). Further, the GI50 in the experiment with SF-268 is 26.2 µM (inactive); with UACC-257, 19.6 µM (inactive); in the experiment on Hs-578T, 30.8 µM (inactive); with HCT-15 it was 21.1 µM; with 786-0 it was 20.4 µM (inactive); in the experiment on MDA-MB-231, 20.6 µM (inactive).
For `COc1cc(/C=C2\N=C(c3ccccc3)N(c3cc4cc(Sc5ccccc5)ccc4[nH]3)C2=O)cc(OC)c1OC`, the GI50 in the experiment with EKVX was 17.5 µM (inactive); with OVCAR-8 it was 12.6 µM (inactive); in the experiment with NCI-H460 it was 14.3 µM (inactive); with NCI-H522, 2.96 µM (inactive); with SN12C, 15.2 µM (inactive); in the experiment with SR, 2.18 µM (inactive). The GI50 was 26 µM (inactive) with OVCAR-4; 23.2 µM (inactive) with SNB-19; 15 µM (inactive) in the experiment on KM12; 15 µM (inactive) in the experiment with HOP-62; 17.3 µM (inactive) in the experiment with CAKI-1; 14.6 µM (inactive) with HL-60. The GI50 is 2.16 µM (inactive) with SF-268; 14.8 µM (inactive) in the experiment with UACC-257; 2.72 µM (inactive) with Hs-578T; 14.4 µM in the experiment on HCT-15; 12.6 µM (inactive) in the experiment on 786-0; 12.3 µM (inactive) with SF-539.
On to `O=C1/C(=C\c2cccc(Oc3ccccc3)c2)SC(c2ccccc2)N1c1cccc(Cl)c1` (configuration not stated), for which the GI50 in the experiment with EKVX, in the experiment with U-251, in the experiment with OVCAR-8, in the experiment on NCI-H460, in the experiment on SN12C and with OVCAR-4 was > 100 µM (inactive) throughout. For the same compound, the GI50 with SNB-19 is > 100 µM (inactive); in the experiment on KM12, 35.8 µM (inactive); in the experiment on HOP-62 it was > 100 µM (inactive); in the experiment on CAKI-1 it was > 100 µM (inactive); in the experiment with SF-268, > 100 µM (inactive); in the experiment with UACC-257, > 100 µM (inactive). Also, the GI50 is > 100 µM (inactive) in the experiment on Hs-578T, over 100 µM with HCT-15, > 100 µM (inactive) with 786-0 and > 100 µM (inactive) in the experiment on MDA-MB-231.
In the case of `O=S1(=O)OCCCOS(=O)(=O)C1(Br)Br`, the GI50 with EKVX, with U-251, in the experiment on OVCAR-8, in the experiment with NCI-H522, in the experiment on SN12C and with SR was > 100 µM (inactive) throughout. The GI50 in the experiment on OVCAR-4 was > 100 µM (inactive); in the experiment with SNB-19, > 100 µM (inactive); in the experiment with KM12 it was > 100 µM (inactive); with HOP-62, 0.743 µM (active); in the experiment on CAKI-1 it was > 100 µM (inactive); with HL-60 it was > 100 µM (inactive). Moreover, the GI50 is > 100 µM (inactive) in the experiment with SF-268; > 100 µM (inactive) with UACC-257; 62.2 µM (inactive) with Hs-578T; over 100 µM in the experiment on HCT-15; > 100 µM (inactive) in the experiment on 786-0.
For `N/C(=N\c1ccc(Cl)c(Cl)c1)c1ccccc1N`, the GI50 was 18.3 µM (inactive) in the experiment with EKVX; 30.1 µM (inactive) with U-251; 26.4 µM (inactive) in the experiment on OVCAR-8; 34.8 µM (inactive) in the experiment on NCI-H460; 11.4 µM (inactive) with NCI-H522; 50.8 µM (inactive) in the experiment with OVCAR-4. Also, the GI50 is 31.3 µM (inactive) with SNB-19; 33.6 µM (inactive) in the experiment on KM12; 57.4 µM (inactive) in the experiment on HOP-62; 30.3 µM (inactive) in the experiment with CAKI-1; 22.2 µM (inactive) in the experiment on HL-60; 20.2 µM (inactive) in the experiment on SF-268. The GI50 was 27.1 µM (inactive) in the experiment on UACC-257; 12.3 µM (inactive) with Hs-578T; 28.2 µM with HCT-15; 28.2 µM (inactive) in the experiment on 786-0; 25.3 µM (inactive) in the experiment on MDA-MB-231.
With `CN1CCCCC(C#N)(c2ccccc2)CC1` (configuration not stated), the GI50 in the experiment with EKVX, with U-251, with OVCAR-8, in the experiment on NCI-H460, in the experiment on SR and in the experiment on OVCAR-4 was > 100 µM (inactive) each time. In addition, the GI50 in the experiment on SNB-19, in the experiment with KM12, in the experiment on HOP-62, in the experiment on CAKI-1, in the experiment with HL-60 and in the experiment with SF-268 was > 100 µM (inactive) in each case. The GI50 is > 100 µM (inactive) in the experiment on UACC-257, > 100 µM (inactive) in the experiment on Hs-578T, over 100 µM in the experiment with HCT-15 and > 100 µM (inactive) in the experiment with 786-0.

The values above are taken from ChEMBL document CHEMBL1201862, “PubChem BioAssay data set” (2004).
